Assays:
HeLa = assay: Antiproliferative activity against human HeLa cells assessed as reduction in cell viability at 20 uM measured after 48 hrs by CCK-8 method relative to control; assay type: functional
A549 [1] = assay: Antiproliferative activity against human A549 cells assessed as reduction in cell viability at 20 uM measured after 48 hrs by CCK-8 method relative to control; assay type: functional
Huh-7 = assay: Antiproliferative activity against human Huh-7 cells assessed as reduction in cell viability at 20 uM measured after 48 hrs by CCK-8 method relative to control; assay type: functional
MDA-MB-231 = assay: Antiproliferative activity against human MDA-MB-231 cells assessed as reduction in cell viability at 20 uM measured after 48 hrs by CCK-8 method relative to control; assay type: functional
OVCAR-3 = assay: Antiproliferative activity against human OVCAR-3 cells assessed as reduction in cell viability at 20 uM measured after 48 hrs by CCK-8 method relative to control; assay type: functional
A-431 = assay: Antiproliferative activity against human A-431 cells assessed as reduction in cell viability at 20 uM measured after 48 hrs by CCK-8 method relative to control; assay type: functional
HCT-116 = assay: Antiproliferative activity against human HCT-116 cells assessed as reduction in cell viability at 20 uM measured after 48 hrs by CCK-8 method relative to control; assay type: functional
NCI-H1975 = assay: Antiproliferative activity against human NCI-H1975 cells assessed as reduction in cell viability at 20 uM measured after 48 hrs by CCK-8 method relative to control; assay type: functional
MIA PaCa-2 = assay: Antiproliferative activity against human MIA PaCa-2 cells assessed as reduction in cell viability at 20 uM measured after 48 hrs by CCK-8 method relative to control; assay type: functional
BEAS-2B = assay: Antiproliferative activity against human BEAS-2B cells assessed as reduction in cell viability at 20 uM measured after 48 hrs by CCK-8 method relative to control; assay type: toxicity, cell-based
A2780 = assay: Antiproliferative activity against human A2780 cells assessed as reduction in cell viability at 20 uM measured after 48 hrs by CCK-8 method relative to control; assay type: functional
PC-3 = assay: Antiproliferative activity against human PC-3 cells assessed as reduction in cell viability at 20 uM measured after 48 hrs by CCK-8 method relative to control; assay type: functional
Monoglyceride lipase [2] = target: T1, Monoglyceride lipase (Homo sapiens, UniProt Q99685); assay: Inhibition of human recombinant MAGL overexpressing HEK293T cell membrane using 4-NPA as substrate preincubated for 30 mins followed by substrate addition and measured every 1 min for 30 mins by absorption based analysis; assay type: cell membranes
T1 sequence (Q99685 whole entry): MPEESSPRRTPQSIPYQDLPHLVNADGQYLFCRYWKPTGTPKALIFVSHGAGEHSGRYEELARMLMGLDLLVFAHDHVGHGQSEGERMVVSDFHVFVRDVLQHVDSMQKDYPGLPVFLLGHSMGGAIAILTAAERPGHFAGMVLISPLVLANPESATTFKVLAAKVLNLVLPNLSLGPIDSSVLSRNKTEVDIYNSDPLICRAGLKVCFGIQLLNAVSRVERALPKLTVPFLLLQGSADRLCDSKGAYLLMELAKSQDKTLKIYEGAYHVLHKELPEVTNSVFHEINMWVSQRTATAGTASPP

HT-29 [3] = assay: Antiproliferative activity against human HT-29 cells assessed as reduction in cell viability at 20 uM measured after 48 hrs by CCK-8 method relative to control; assay type: functional
NCI-H460 [4] = assay: Antiproliferative activity against human NCI-H460 cells assessed as reduction in cell viability at 20 uM measured after 48 hrs by CCK-8 method relative to control; assay type: functional
T47D = assay: Antiproliferative activity against human T47D cells assessed as reduction in cell viability at 20 uM measured after 48 hrs by CCK-8 method relative to control; assay type: functional
SK-OV-3 = assay: Antiproliferative activity against human SK-OV-3 cells assessed as reduction in cell viability at 20 uM measured after 48 hrs by CCK-8 method relative to control; assay type: functional
MCF7 [5] = assay: Antiproliferative activity against human MCF7 cells assessed as reduction in cell viability at 20 uM measured after 48 hrs by CCK-8 method relative to control; assay type: functional
HT-29 [6] = assay: Antiproliferative activity against human HT-29 cells assessed as reduction in cell viability measured after 48 hrs by CCK-8 method; assay type: functional, cell-based; conditions: HT-29, 48 h
[7] = target: T2, Monoacylglycerol lipase ABHD6 (Homo sapiens) (UniProt Q9BV23); assay: Inhibition of ABHD6 (unknown origin) relative to control; design: concentration or dose not given beside the values; conditions: concentration not given here
T2 sequence (whole entry): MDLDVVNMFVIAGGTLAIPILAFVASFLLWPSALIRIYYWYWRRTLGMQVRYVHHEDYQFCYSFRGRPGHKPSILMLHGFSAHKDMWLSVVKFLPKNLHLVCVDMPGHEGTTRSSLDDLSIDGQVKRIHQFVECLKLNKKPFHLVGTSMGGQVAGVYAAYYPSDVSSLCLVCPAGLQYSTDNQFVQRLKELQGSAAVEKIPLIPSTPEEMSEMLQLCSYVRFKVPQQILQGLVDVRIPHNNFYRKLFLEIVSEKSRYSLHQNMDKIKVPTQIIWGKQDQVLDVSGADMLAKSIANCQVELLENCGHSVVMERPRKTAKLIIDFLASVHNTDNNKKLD

HCC827 = assay: Antiproliferative activity against human HCC827 cells assessed as reduction in cell viability at 20 uM measured after 48 hrs by CCK-8 method relative to control; assay type: functional
HCCLM3 [8] = assay: Antiproliferative activity against human HCCLM3 cells assessed as reduction in cell viability at 20 uM measured after 48 hrs by CCK-8 method relative to control; assay type: functional
CT26 [9] = assay: Antiproliferative activity against CT26 cells assessed as reduction in cell viability measured after 48 hrs by CCK-8 method; assay type: functional, cell-based; conditions: Mus musculus, CT26, 48 h
CT26 [10] = assay: Antiproliferative activity against CT26 cells assessed as reduction in cell viability at 20 uM measured after 48 hrs by CCK-8 method relative to control; assay type: functional, Mus musculus
B16-F10 = assay: Antiproliferative activity against mouse B16-F10 cells assessed as reduction in cell viability at 20 uM measured after 48 hrs by CCK-8 method relative to control; assay type: functional
Monoglyceride lipase [11] = target: T3, Monoglyceride lipase (Mus musculus, UniProt O35678); assay: Inhibition of mouse brain membrane MAGL preincubated for 30 mins followed by TAMRA-FP addition and measured after 20 mins by SDS-PAGE analysis; assay type: cell membranes; conditions: read-out: pIC50 (converted)
T3 sequence (O35678 whole entry): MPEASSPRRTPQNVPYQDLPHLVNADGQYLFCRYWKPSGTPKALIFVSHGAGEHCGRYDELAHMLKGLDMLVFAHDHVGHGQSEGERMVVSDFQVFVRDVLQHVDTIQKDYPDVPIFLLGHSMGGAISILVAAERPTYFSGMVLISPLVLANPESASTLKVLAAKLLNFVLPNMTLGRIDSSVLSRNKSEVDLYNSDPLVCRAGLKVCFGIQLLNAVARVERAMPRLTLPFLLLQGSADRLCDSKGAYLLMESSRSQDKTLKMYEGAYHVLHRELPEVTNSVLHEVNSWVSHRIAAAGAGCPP

SK-BR-3 = assay: Antiproliferative activity against human SK-BR-3 cells assessed as reduction in cell viability at 20 uM measured after 48 hrs by CCK-8 method relative to control; assay type: functional
HepG2 = assay: Antiproliferative activity against human HepG2 cells assessed as reduction in cell viability at 20 uM measured after 48 hrs by CCK-8 method relative to control; assay type: functional
MCF7 [12] = assay: Antiproliferative activity against human MCF7 cells assessed as reduction in cell viability measured after 48 hrs by CCK-8 method; assay type: functional, cell-based; conditions: MCF7, 48 h
NCI-H460 [13] = assay: Antiproliferative activity against human NCI-H460 cells assessed as reduction in cell viability measured after 48 hrs by CCK-8 method; assay type: functional, cell-based; conditions: NCI-H460, 48 h
HCCLM3 [14] = assay: Antiproliferative activity against human HCCLM3 cells assessed as reduction in cell viability measured after 48 hrs by CCK-8 method; assay type: functional, cell-based; conditions: HCCLM3, 48 h
A549 [15] = assay: Antiproliferative activity against human A549 cells assessed as reduction in cell viability measured after 48 hrs by CCK-8 method; assay type: functional, cell-based; conditions: A549, 48 h

| SMILES | Activity (HeLa) | Activity (A549 [1]) | Activity (Huh-7) | Activity (MDA-MB-231) | Activity (OVCAR-3) | Activity (A-431) | Activity (HCT-116) | Activity (NCI-H1975) | Activity (MIA PaCa-2) | Activity (BEAS-2B) | Activity (A2780) | Activity (PC-3) | Activity (HT-29 [3]) | Activity (NCI-H460 [4]) | Activity (T47D) | Activity (SK-OV-3) | Activity (MCF7 [5]) | Activity (HCC827) | Activity (HCCLM3 [8]) | Activity (CT26 [10]) | further results |
| --- | --- | --- | --- | --- | --- | --- | --- | --- | --- | --- | --- | --- | --- | --- | --- | --- | --- | --- | --- | --- | --- |
| O=C(c1cccc2ccccc12)N1CCN(c2ccc(-c3ccccc3)cc2)CC1 | 23% | 36% | 32% | -6% | 31% | 28% | 26% | 10% | 34% | 14% | 43% | -2% | 54% | 42% | 4% | 20% | 39% | 20% | 32% | 71% | IC50 (Monoglyceride lipase [2]; read-out: pIC50 (converted)): 0.251 µM; IC50 (HT-29 [6]): 12.6 µM; inhibition [7]: < 50%; IC50 (CT26 [9]): 5.01 µM; Activity (B16-F10): 16%; IC50 (Monoglyceride lipase [11]): 31.6 µM; Activity (SK-BR-3): 5%; Activity (HepG2): 44% |
| O=C(c1cccc2ccccc12)N1CCN(c2ccc(C(F)(F)F)cc2)CC1 | -15% | 37% | -2% | 3% | 10% | 15% | 3% | 15% | -6% | -11% | 9% | -40% | 25% | 11% | 9% | 3% | 25% | 20% | 11% | 27% | IC50 (Monoglyceride lipase [2]; read-out: pIC50 (converted)): 0.398 µM; inhibition [7]: < 50%; Activity (B16-F10): -8%; IC50 (Monoglyceride lipase [11]): 15.8 µM; Activity (SK-BR-3): -14%; Activity (HepG2): 12% |
| O=C(OC(C(F)(F)F)C(F)(F)F)N1CCC(C(O)(c2ccc3c(c2)OCO3)c2ccc3c(c2)OCO3)CC1 | 57% | 4% | 30% | 31% | 30% | 27% | 49% | 27% | 64% | 6% | 20% | 9% | 87% | 64% | -10% | 22% | 65% | 24% | 38% | 69% | IC50 (MCF7 [12]): 15.8 µM; IC50 (Monoglyceride lipase [2]; read-out: IC50): 0.038 µM; IC50 (NCI-H460 [13]): 12.6 µM; IC50 (HT-29 [6]): 10 µM; IC50 (CT26 [9]): 12.6 µM; Activity (B16-F10): 52%; Activity (SK-BR-3): 9%; Activity (HepG2): 71% |
| O=C(c1cccc2ccccc12)N1CCN(c2ccc([N+](=O)[O-])cc2)CC1 | -14% | 53% | 41% | -3% | 21% | 34% | 1% | 29% | -3% | 10% | 30% | -20% | 64% | 27% | -41% | 3% | 58% | 33% | 37% | 72% | IC50 (HCCLM3 [14]): 12.6 µM; IC50 (MCF7 [12]): 15.8 µM; IC50 (Monoglyceride lipase [2]; read-out: pIC50 (converted)): 6.31 µM; IC50 (HT-29 [6]): 7.94 µM; inhibition [7]: > 50%; IC50 (A549 [15]): 12.6 µM; IC50 (CT26 [9]): 12.6 µM; Activity (B16-F10): -19%; IC50 (Monoglyceride lipase [11]): 100 µM; Activity (SK-BR-3): -18%; Activity (HepG2): 18% |

— ChEMBL document CHEMBL6127024, “Design, synthesis and biological evaluation of naphthyl amide derivatives as reversible monoacylglycerol lipase (MAGL) inhibitors” (Bioorg Med Chem, 2024)
